# Results from US11390616B2 (BRISTOL-MYERS SQUIBB COMPANY, priority 2015, dated 2022).
# pEC50: −log10 of the molar value.
# Target: T1, human APJ receptor (Homo sapiens, UniProt P35414)
# T1 construct: expressed in transfected cells; host or cells: HEK293
# T1 sequence (P35414 1-380): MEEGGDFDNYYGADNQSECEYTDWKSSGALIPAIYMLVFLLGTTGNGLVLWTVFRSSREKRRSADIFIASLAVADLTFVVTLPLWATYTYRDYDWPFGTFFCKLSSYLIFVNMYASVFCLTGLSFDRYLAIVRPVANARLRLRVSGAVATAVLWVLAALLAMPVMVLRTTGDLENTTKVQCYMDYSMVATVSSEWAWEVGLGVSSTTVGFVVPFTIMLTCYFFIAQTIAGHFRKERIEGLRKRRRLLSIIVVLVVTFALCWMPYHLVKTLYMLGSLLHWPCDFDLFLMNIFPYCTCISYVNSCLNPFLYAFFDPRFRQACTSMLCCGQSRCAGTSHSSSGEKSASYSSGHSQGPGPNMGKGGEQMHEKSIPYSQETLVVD
# Assay: Intracellular cAMP accumulation assay (APJ hcAMP, HTRF)
# Type: cell-based
# Details: HEK293 cells stably expressing human APJ receptor; inhibition of forskolin-mediated cAMP production; read-out: APJ cAMP Potency range
# Summary of the method: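 HEK293 cells stably expressing the receptor (5,000/well) treated with compound plus […] and 2 μM forskolin for 30 min at room temperature; cAMP by HTRF against a cAMP standard curve. EC50 from variable-slope sigmoidal fit; Ymax as % of (Pyr1)apelin-13 inhibition.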
row,Structure (SMILES),pEC50
1,"COc1cccc(OC)c1-n1c(COC2CCC2)nc(O)c(Cc2ccc(-n3ccccc3=O)cc2)c1=O [Example 39, 2-(cyclobutoxymethyl)-3-(2,6-dimethoxyphenyl)-6-hydroxy-5-{[4-(2-oxo-1,2-dihydropyridin-1-yl)phenyl]methyl}-3,4-dihydropyrimidin-4-one]",8.00 to 11.00
2,"COc1cccc(OC)c1-n1c(C2CCCC2)nc(O)c(Cc2ccc(-n3ccccc3=O)cc2)c1=O [Example 38, 2-cyclopentyl-3-(2,6-dimethoxyphenyl)-6-hydroxy-5-{[4-(2-oxo-1,2-dihydropyridin-1-yl)phenyl]methyl}-3,4-dihydropyrimidin-4-one]",8.00 to 11.00
3,"CCCCc1nc(=O)c(Cc2ccc(C3CC3)cc2)c(O)n1-c1c(CC)cccc1CC [Example 67, 2-butyl-5-[(4-cyclopropylphenyl)methyl]-1-(2,6-diethylphenyl)-6-hydroxy-1,4-dihydropyrimidin-4-one]",8.00 to 11.00
4,"CCc1cccc(CC)c1-n1c(-c2ccn(C(C)C)n2)nc(=O)c(Cc2ccc(-c3cccn(C)c3=O)c(F)c2)c1O [Example 87, 1-(2,6-diethylphenyl)-5-{[3-fluoro-4-(1-methyl-2-oxo-1,2-dihydropyridin-3-yl)phenyl]methyl}-6-hydroxy-2-[1-(propan-2-yl)-1H-pyrazol-3-yl]-1,4-dihydropyrimidin-4-one]",8.00 to 11.00
5,"CCn1ccc(-c2nc(=O)c(Cc3ccc(-c4ccncc4C)cc3)c(O)n2-c2c(OC)cccc2OC)n1 [Example 62, 1-(2,6-dimethoxyphenyl)-2-(1-ethyl-1H-pyrazol-3-yl)-6-hydroxy-5-{[4-(3-methylpyridin-4-yl)phenyl]methyl}-1,4-dihydropyrimidin-4-one]",8.00 to 11.00
6,"CCCCc1nc(O)c(Cc2ccc(-c3ncon3)cc2F)c(=O)n1-c1c(OC)cccc1OC [Example 6, 2-butyl-3-(2,6-dimethoxyphenyl)-5-{[2-fluoro-4-(1,2,4-oxadiazol-3-yl)phenyl]methyl}-6-hydroxy-3,4-dihydropyrimidin-4-one]",8.00 to 11.00
7,"CCCCc1nc(O)c(Cc2ccc(OC)cc2)c(=O)n1-c1c(OC)cccc1OC [Example 2, 2-butyl-3-(2,6-dimethoxyphenyl)-6-hydroxy-5-[(4-methoxyphenyl)methyl]-3,4-dihydropyrimidin-4-one]",7.00 to 8.00
8,"CCc1cccc(CC)c1-n1c(-c2ccn(C3CC3)n2)nc(=O)c(Cc2ccc(-c3ccc(F)cc3C(N)=O)c(F)c2)c1O [Example 94, 4′-{[2-(1-cyclopropyl-1H-pyrazol-3-yl)-1-(2,6-diethylphenyl)-6-hydroxy-4-oxo-1,4-dihydropyrimidin-5-yl]methyl}-2′,4-difluoro-[1,1′-biphenyl]-2-carboxamide]",8.00 to 11.00
9,"CCCCc1nc(O)c(Cc2ccc(C(=O)NCC)cc2)c(=O)n1-c1c(OC)cccc1OC [Example 15, 4-{[2-butyl-1-(2,6-dimethoxyphenyl)-4-hydroxy-6-oxo-1,6-dihydropyrimidin-5-yl]methyl}-N-ethylbenzamide]",7.00 to 8.00
10,"CC[C@@H](c1cc(F)cc(F)c1)n1c(-c2ccn(CC)n2)nc(=O)c(Cc2ccc(-c3ccc(F)nc3C)cc2)c1O [Example 134, 1-[(1S)-1-(3,5-difluorophenyl)propyl]-2-(1-ethyl-1H-pyrazol-3-yl)-5-{[4-(6-fluoro-2-methylpyridin-3-yl)phenyl]methyl}-6-hydroxy-1,4-dihydropyrimidin-4-one]",8.00 to 11.00
11,"CC(C)[C@@H](c1cc(F)cc(F)c1)n1c(CCC2CC2)nc(=O)c(Cc2ccc(-c3ccc(F)cc3C(N)=O)cc2)c1O [Example 117, 4′-{[2-(2-cyclopropylethyl)-1-[(1S)-1-(3,5-difluorophenyl)-2-methylpropyl]-6-hydroxy-4-oxo-1,4-dihydropyrimidin-5-yl]methyl}-4-fluoro-[1,1′-biphenyl]-2-carboxamide]",8.00 to 11.00
12,"COc1cccc(OC)c1-n1c(COC(C)C)nc(O)c(Cc2ccc(-n3cc(Cl)ccc3=O)cc2)c1=O [Example 60, 5-{[4-(5-chloro-2-oxo-1,2-dihydropyridin-1-yl)phenyl]methyl}-3-(2,6-dimethoxyphenyl)-6-hydroxy-2-[(propan-2-yloxy)methyl]-3,4-dihydropyrimidin-4-one]",8.00 to 11.00
13,"CCc1cccc(CC)c1-n1c(-c2nc(C)cs2)nc(=O)c(Cc2ccc(-c3ccc(F)nc3C)c(F)c2)c1O [Example 79, 1-(2,6-diethylphenyl)-5-{[3-fluoro-4-(6-fluoro-2-methylpyridin-3-yl)phenyl]methyl}-6-hydroxy-2-(4-methyl-1,3-thiazol-2-yl)-1,4-dihydropyrimidin-4-one]",8.00 to 11.00
14,"CC(C)OCc1nc(=O)c(Cc2ccc(-c3ccc(F)cc3C(N)=O)cc2)c(O)n1[C@H](c1cc(F)cc(F)c1)C(C)C [Example 116, 4′-({1-[(1S)-1-(3,5-difluorophenyl)-2-methylpropyl]-6-hydroxy-4-oxo-2-[(propan-2-yloxy)methyl]-1,4-dihydropyrimidin-5-yl}methyl)-4-fluoro-[1,1′-biphenyl]-2-carboxamide]",8.00 to 11.00
15,"COc1cccc(OC)c1-n1c(COC(C)C)nc(O)c(Cc2ccc(-n3cc(C)ccc3=O)cc2)c1=O [Example 58, 3-(2,6-dimethoxyphenyl)-6-hydroxy-5-{[4-(5-methyl-2-oxo-1,2-dihydropyridin-1-yl)phenyl]methyl}-2-[(propan-2-yloxy)methyl]-3,4-dihydropyrimidin-4-one]",8.00 to 11.00
16,"CCCCc1nc(O)c(Cc2ccc(-n3cccn3)cc2)c(=O)n1-c1c(OC)cccc1OC [Example 5, 2-butyl-3-(2,6-dimethoxyphenyl)-6-hydroxy-5-{[4-(1H-pyrazol-1-yl)phenyl]methyl}-3,4-dihydropyrimidin-4-one]",8.00 to 11.00
17,"CC[C@@H](c1cc(F)cc(F)c1)n1c(-c2ccn(CC)n2)nc(=O)c(Cc2ccc(-c3ccc(F)nc3)cc2)c1O [Example 135, 1-[(1S)-1-(3,5-difluorophenyl)propyl]-2-(1-ethyl-1H-pyrazol-3-yl)-5-{[4-(6-fluoropyridin-3-yl)phenyl]methyl}-6-hydroxy-1,4-dihydropyrimidin-4-one]",8.00 to 11.00
18,"CCc1cccc(CC)c1-n1c(-c2ccn(C)n2)nc(=O)c(Cc2ccc(-c3ccnc(F)c3C)c(F)c2)c1O [Example 71, 1-(2,6-diethylphenyl)-5-{[3-fluoro-4-(2-fluoro-3-methylpyridin-4-yl)phenyl]methyl}-6-hydroxy-2-(1-methyl-1H-pyrazol-3-yl)-1,4-dihydropyrimidin-4-one]",8.00 to 11.00
19,"CC[C@@H](c1cc(F)cc(F)c1)n1c(CCC2CC2)nc(=O)c(Cc2ccc(-c3ccncc3C)cc2)c1O [Example 110, 2-(2-cyclopropylethyl)-1-[(1S)-1-(3,5-difluorophenyl)propyl]-6-hydroxy-5-{[4-(3-methylpyridin-4-yl)phenyl]methyl}-1,4-dihydropyrimidin-4-one]",8.00 to 11.00
20,"CCCCc1nc(=O)c(Cc2cccc(-c3ccncc3C)c2)c(O)n1[C@@H](CC)c1cc(F)cc(F)c1 [Example 127, 2-butyl-1-[(1S)-1-(3,5-difluorophenyl)propyl]-6-hydroxy-5-{[3-(3-methylpyridin-4-yl)phenyl]methyl}-1,4-dihydropyrimidin-4-one]",7.00 to 8.00
21,"CCc1cccc(CC)c1-n1c(-c2ccn(CC(C)C)n2)nc(=O)c(Cc2ccc(-c3ccnc(F)c3C)c(F)c2)c1O [Example 91, 1-(2,6-diethylphenyl)-5-{[3-fluoro-4-(2-fluoro-3-methylpyridin-4-yl)phenyl]methyl}-6-hydroxy-2-[1-(2-methylpropyl)-1H-pyrazol-3-yl]-1,4-dihydropyrimidin-4-one]",6.52 to 7.00
22,"COc1cccc(OC)c1-n1c(CCC2CC2)nc(O)c(Cc2ccc(-n3cc(C)ccc3=O)cc2)c1=O [Example 55, 2-(2-cyclopropylethyl)-3-(2,6-dimethoxyphenyl)-6-hydroxy-5-{[4-(5-methyl-2-oxo-1,2-dihydropyridin-1-yl)phenyl]methyl}-3,4-dihydropyrimidin-4-one]",8.00 to 11.00
23,"CC[C@@H](c1cc(F)cc(F)c1)n1c(-c2ccn(CC)n2)nc(=O)c(Cc2ccc(-c3cccnc3C)cc2)c1O [Example 133, 1-[(1S)-1-(3,5-difluorophenyl)propyl]-2-(1-ethyl-1H-pyrazol-3-yl)-6-hydroxy-5-{[4-(2-methylpyridin-3-yl)phenyl]methyl}-1,4-dihydropyrimidin-4-one]",8.00 to 11.00
24,"CCCCc1nc(=O)c(Cc2ccc(-c3ccc(F)nc3)cc2)c(O)n1-c1c(CC)cccc1CC [Example 65, 2-butyl-1-(2,6-diethylphenyl)-5-{[4-(6-fluoropyridin-3-yl)phenyl]methyl}-6-hydroxy-1,4-dihydropyrimidin-4-one]",8.00 to 11.00

# Same assay, conditions: HEK293 cells stably expressing human APJ receptor; inhibition of forskolin-mediated cAMP production; read-out: Human APJ cAMP EC50 potency range
row,Structure (SMILES),pEC50
1,"CCCCc1nc(=O)c(Cc2ccc(-c3ccc(F)nc3C)cc2)c(O)n1[C@@H](CC)c1cccc(C#N)c1 [Example 95, (S)-3-(1-(2-butyl-5-(4-(6-fluoro-2-methylpyridin-3-yl)benzyl)-6-hydroxy-4-oxopyrimidin-1(4H)-yl)propyl)benzonitrile]",8.00 to 11.00
2,"CCc1cccc(CC)c1-n1c(-c2ccn(C3CC3)n2)nc(=O)c(Cc2ccc(-c3ccnc(F)c3C)c(F)c2)c1O [Example 61, 2-(1-cyclopropyl-1H-pyrazol-3-yl)-1-(2,6-diethylphenyl)-5-(3-fluoro-4-(2-fluoro-3-methylpyridin-4-yl)benzyl)-6-hydroxypyrimidin-4(1H)-one]",8.00 to 11.00
